The structures appear in SMILES notation.

A short description of this data set: First order rate constant for spontaneous decomposition. It is filed as ADME.

In the case of `N[C@@H](CSN=O)C(=O)O`, the Rate constant amounted to 0.0000146 s⁻¹.
